Test results taken from US8338476B2, “Compositions and methods of sensitizing methicillin resistant Staphylococcus aureus to beta-lactam antibiotics” (priority 2005, dated 2012).
Read-outs that look alike come from different tables or passages of the source.

What was measured:
Format in all cases: cell-based, Staphylococcus aureus
[1] = tested on: mid-logarithmic EMRSA-16 cells; assay: Binding of catechins to S. aureus cells (HPLC assay of Kajiya et al); conditions: for fraction of the catechin pool bound to / associated with the cells: catechin alone, 20 min incubation at 35° C.
Description: As S. aureus membranes are uniquely composed of phosphatidylglycerol (63-74%), lysylphosphatidylglycerol (17-22%), and cardiolipin (5-15%), the inventors determined the capacity of non-galloylated catechins to enhance ECG binding to S. aureus using the HPLC assay described by Kajiya et al (Kajiya, K., S. Kumazawa, and T. Nakayama. 2001. Steric effects on the interaction of tea catechins with lipid bilayers. Biosci. Biotechnol. Biochem. 65:2638-2643). EC, EGC, ECG and EGCG were provided by the Tokyo Food Techno Co. Ltd., Tokyo, Japan. S. aureus BB568 is a constitutive PBP2a producer (provided by B. Berger-Bächi, University of Zürich), and EMRSA-15 and EMRSA-16 were clinical isolates from the Royal Free Hospital, London. Binding of ECG to mid-logarithmic EMRSA-16 cells was enhanced by EC at concentrations of 25 mcg/ml. 13% of the EC pool bound after 20 min incubation at 35° C., and 22% of ECG was associated with the cells. In the presence of EC, ECG binding rose to 41%. […] EC appears, therefore, to facilitate ECG binding to staphylococcal cells as well as to PC and PE liposomes.

[2] = tested on: EMRSA-16; assay: Checkerboard MIC assay, sensitization to oxacillin; conditions: for MIC: Staphylococcus aureus
Experimental: MICs were then recorded and the experiments were repeated in the presence of the non-galloylated catechin epicatechin at varying concentrations between 0 mcg/ml and 50 mcg/ml.
(§1) Checkerboard MIC assays were performed in 96-well microtiter trays with an inoculum of about 10^4 CFU in 200 μl of Mueller-Hinton broth (Oxoid, Basingstoke, United Kingdom) supplemented with 2% NaCl. MIC values were obtained after incubation at 35° C. for 24 h. S. aureus ATCC29213 was used as the standard susceptible strain. Fractional inhibitory concentration (FIC) indices for triple combinations were calculated as follows: ΣFIC=FICOXA+FICB+FICC=[C^combOXA/MIC^OXA]+[C^combB/MICB]+[C^combC/MICC], where C^combB, and C^combc are the concentrations of catechins tested. […] For combinations of two compounds the term (C^combC/MICC) was omitted. An FIC index of ≦0.5 indicates synergy.

[3] = tested on: EMRSA-16, EMRSA-15 and BB568; assay: Checkerboard MIC assay, results stated jointly for the three isolates
Experimental: as §1

[4] = tested on: S. aureus BB568; assay: Checkerboard MIC assay, sensitization to oxacillin; conditions: for MIC: Staphylococcus aureus
Experimental: as §1

[5] = tested on: EMRSA-15; assay: Checkerboard MIC assay, sensitization to oxacillin
Experimental: as §1

Q: For `Oc1cc(O)c2c(c1)O[C@H](c1ccc(O)c(O)c1)[C@H](O)C2` [EC, epicatechin], which “EC binding in the presence of ECG” value ([1]; 20 min at 35° C.) is on record?
A: 35.5%

Q: What about the “fraction of the catechin pool bound to / associated with the cells” value [1] of the same compound?
A: 13%

Q: Which “ECG binding in the presence of EC” value ([1]; EC 25 mcg/ml, 20 min at 35° C.) does the source give for `O=C(O[C@@H]1Cc2c(O)cc(O)cc2O[C@@H]1c1ccc(O)c(O)c1)c1cc(O)c(O)c(O)c1` [ECG, epicatechin gallate] here?
A: 41%

Q: What about the “fraction of the catechin pool bound to / associated with the cells” value [1] of the same compound?
A: 22%

Q: What about the “growth of EMRSA-16 in the absence of oxacillin” value ([2]; ECG ≧12.5 mg/ml with both EC and EGC ≧50 mg/ml, no oxacillin) of the same compound?
A: inhibited the growth

Q: `Oc1cc(O)c2c(c1)O[C@H](c1cc(O)c(O)c(O)c1)[C@H](O)C2` [EGC, epigallocatechin] was tested. Which “FIC index, triple combination with oxacillin and ECG” value ([3]; FIC index ≦0.5 indicates synergy) did it give?
A: strong synergy

Q: And the “effect on the capacity of ECG to reduce oxacillin resistance” value ([3]; in combination with ECG and oxacillin)?
A: markedly enhanced

Q: What about the “enhancement of EGCG-mediated sensitization to oxacillin” value ([3]; in combination with EGCG and oxacillin, less than with ECG) of the same compound?
A: could enhance sensitization

Q: And the “effect of the non-galloylated catechin alone on the MIC of oxacillin” value ([3]; without ECG)?
A: unable to reduce the MIC of oxacillin

Q: How did the “effect of EGCG on the capacity of ECG to reduce the oxacillin MIC” value ([4]; ECG 12.5 mg/ml) turn out when `O=C(O[C@@H]1Cc2c(O)cc(O)cc2O[C@@H]1c1cc(O)c(O)c(O)c1)c1cc(O)c(O)c(O)c1` [EGCG, epigallocatechin gallate] was run?
A: compromised the capacity of ECG to reduce the MICs

Q: What about the “effect on oxacillin MIC when added to ECG” value ([2]; ECG 0-12.5 mcg/ml, added catechin 0-50 mcg/ml) of the same compound?
A: substantially no significant and synergistic effect

Q: And the “effect of EGCG on the capacity of ECG to reduce the oxacillin MIC” value ([2]; ECG 12.5 mg/ml)?
A: compromised the capacity of ECG to reduce the MICs

Q: What about the “reduction of the oxacillin MIC by EGCG in the presence of ECG” value ([3]; ECG 3.12 mg/ml + EGCG 25 mg/ml, strain not stated) of the same compound?
A: twofold

Q: What about the “sensitization to oxacillin by EGCG” value ([3]; EGCG without ECG, effect much less pronounced than with ECG) of the same compound?
A: able to sensitize

Q: How did the “oxacillin MIC in the presence of ECG” value ([5]; ECG 3.12 mg/ml) turn out when `Cc1onc(-c2ccccc2)c1C(=O)N[C@@H]1C(=O)N2[C@@H]1SC(C)(C)[C@@H]2C(=O)O` [oxacillin] was run?
A: a similar effect was achieved

Q: What about the MIC ([5]; Staphylococcus aureus, 24 h, read-out: MIC of oxacillin) of the same compound?
A: 16 µg/mL

Q: And the “oxacillin MIC in the presence of ECG” value ([4]; ECG 12.5 mg/ml)?
A: below the oxacillin breakpoint

Q: And the MIC ([4]; BB568, read-out: oxacillin MIC in the presence of ECG and EC)?
A: 8 µg/mL

Q: What about the MIC ([4]; BB568, read-out: oxacillin MIC in the presence of ECG and EC, ECG 3.12 mg/ml + EC 25 mg/ml) of the same compound?
A: 2 µg/mL

Q: What about the “oxacillin MIC in the presence of ECG” value ([2]; ECG 12.5 mg/ml) of the same compound?
A: below the oxacillin breakpoint

Q: And the MIC ([2]; read-out: oxacillin MIC in the presence of ECG and EC, ECG 3.12 mg/ml + EC 25 mg/ml)?
A: 2 µg/mL

Q: What about the MIC ([2]; read-out: oxacillin MIC in the presence of ECG and EC, ECG 3.12 mcg/ml + EC 6.25 mcg/ml) of the same compound?
A: 8 µg/mL
